Reference: patent publication US8980908B2, “Non-peptidyl, potent, and selective mu opioid receptor antagonists and their use in treating opioid addiction and opioid induced constipation” (Virginia Commonwealth University, priority 2009, dated 2015)
Like-named read-outs stand apart in the source and are kept apart here.

Columns and labels:
[1] = system: Caco-2 cells; settings: cited from earlier work
[2] = system: mouse gastrointestinal transit; settings: high doses; cited from earlier work
[3] = target: T1, MOR (Mus musculus, UniProt P42866); experiment: 35S-GTP[γS]-binding functional assay in MOR expressing CHO cells (Example 2); format: biochemical; set-up: expressed in transfected cells; host or cells: CHO (Chinese hamster ovary) cell line, membrane preparation
Procedure: Furthermore, these systems express the receptor at high density to provide optimal signal-to-noise ratios in the radioligand and ^35S-GTP[γS] binding assays.
(§1) Aliquots of a membrane preparation were incubated with the radioligands in the presence of different concentrations of the drug under investigation at 30° C. for 1 h. […] The potency of the drugs in displacing the specific binding of the radioligand was determined from data using linear regression analysis of Hill plots. The IC50 values will then be determined and corrected to K1 values using the Cheng-Prusoff equation. Functional assays, including ^35S-GTP[γS]-binding assay were conducted in the same cell membranes used for the receptor binding assays.

[4] = dose as high as 10 mg/kg; cited from earlier work
[5] = target: T1, MOR; set-up: expressed in transfected cells; host or cells: CHO (Chinese hamster ovary) cell line, membrane preparation; settings: Table 13 controls and NAP; read-out: Ki μ (see reference 65); cited from earlier work
[6] = target: T1, MOR; set-up: expressed in transfected cells; host or cells: CHO (Chinese hamster ovary) cell line, membrane preparation; settings: Table 13, NAP, cited from earlier work
[7] = system: morphine antinociception in mice; experiment: Warm-water tail immersion test, blockade of morphine antinociception (Example 2); format: in vivo, mouse (Swiss Webster); settings: s.c., 5 min before morphine 10 mg/kg s.c.; 56 °C
[8] = target: DOR (UniProt P41143); experiment: Competitive radioligand binding, [3H]NTI, CHO cells (Example 7); set-up: Ki δ; [3H]NTI; DOR 35S-GTP[γS]; other: three experiments; other: NAP; other: SNC80 normalized to 100%; settings: Table 13, read-out: Ki δ
Procedure: as §1, with “protein (30 μg)” for “preparation”, “corresponding radioligand” for “radioligands”, “Ki” for “K1”, “assays” for “assays, including ^35S-GTP[γS]-binding assay”, “assays. Membrane proteins (10 μg) were incubated with varying concentrations of drugs, GDP (μ: 10 μM; κ and δ: 20 μM) and 0.1 nM ^35S-GTP[γS] in assay buffer for 2 h (μ) or 1.5 h (κ and δ) at 30° C. Nonspecific binding was determined with 10 μM unlabeled GTP[γS].” for “assays.”

[9] = system: Caco-2 cells; experiment: Bidirectional transport in Caco-2 cells; format: in vitro ADME
Procedure: To further characterize the permeability of compounds 8 and 12, they were evaluated in Caco-2 cells for their bidirectional transport capacity (FIG. 29).
Caco-2 (passages 45-47; ATCC, Manassas, Va.) cell culture and bidirectional permeability studies with polyester Transwell filters were performed as described previously.^67 Briefly, cells were cultured in Dulbecco's modified Eagle's medium (9.6 g/L glucose) with 10%/fetal bovine serum and supplemented with 100 unit/mL penicillin, 100 μg/mL streptomycin, and 5% nonessential amino acids for 22 days after seeding on 12 mm 0.4 μm #3460 Transwell-Clear inserts (Fisher Scientific) at a density of 80,000 cells/cm^2. […] A portion of the supernatants was analyzed by HPLC-UV using an Alltima HP C18 column (3 μm, 4.6×100 mm; Alltech, Deerfield, Ill.) at 270 nm for NAP, and a Microsorb-MV 100-3 C18 (4.6×100 mm; Varian) column for NMP or NGP at 266 nm. Analytes concentration was quantified from standard curves prepared in transport buffer-acetonitrile (4:1). […] Apparent permeability was then calculated using the following equation: Papp=J/(A×Ci), where J is the transport rate, A is the surface area of the cell monolayer, and Ci is the initial concentration of the dosing solution.

[10] = target: T1, MOR; experiment: MOR 35S-GTP[γS] binding assay (Example 7); format: biochemical; set-up: expressed in transfected cells; host or cells: CHO (Chinese hamster ovary) cell line, membrane preparation; settings: Table 13; for MOR 35S-GTP[γS] Binding % Emax of DAMGO: DAMGO normalized to 100%
Procedure: as §1, with “protein (30 μg)” for “preparation”, “corresponding radioligand” for “radioligands”, “Ki” for “K1”, “assays” for “assays, including ^35S-GTP[γS]-binding assay”, “assays. Membrane proteins (10 μg) were incubated with varying concentrations of drugs, GDP (μ: 10 μM; κ and δ: 20 μM) and 0.1 nM ^35S-GTP[γS] in assay buffer for 2 h (μ) or 1.5 h (κ and δ) at 30° C. Nonspecific binding was determined with 10 μM unlabeled GTP[γS].” for “assays.”

[11] = target: T1, MOR; experiment: Competitive radioligand binding, [3H]naloxone, CHO cells (Example 7); set-up: expressed in transfected cells; host or cells: CHO (Chinese hamster ovary) cell line, membrane preparation; settings: Table 13; for Selectivity δ/μ / Selectivity κ/μ: Ki ratio; for Ki: [3H]naloxone, three experiments, read-out: Ki μ
Procedure: as §1, with “protein (30 μg)” for “preparation”, “corresponding radioligand” for “radioligands”, “Ki” for “K1”, “assays” for “assays, including ^35S-GTP[γS]-binding assay”, “assays. Membrane proteins (10 μg) were incubated with varying concentrations of drugs, GDP (μ: 10 μM; κ and δ: 20 μM) and 0.1 nM ^35S-GTP[γS] in assay buffer for 2 h (μ) or 1.5 h (κ and δ) at 30° C. Nonspecific binding was determined with 10 μM unlabeled GTP[γS].” for “assays.”

[12] = target: DOR (UniProt P41143); experiment: DOR 35S-GTP[γS] binding assay (Example 7); format: biochemical; set-up: Ki δ; [3H]NTI; DOR 35S-GTP[γS]; other: three experiments; other: NAP; other: SNC80 normalized to 100%; settings: for DOR 35S-GTP[γS] Binding % Emax of SNC80: SNC80 normalized to 100%; for EC50: three experiments
Procedure: as §1, with “protein (30 μg)” for “preparation”, “corresponding radioligand” for “radioligands”, “Ki” for “K1”, “assays” for “assays, including ^35S-GTP[γS]-binding assay”, “assays. Membrane proteins (10 μg) were incubated with varying concentrations of drugs, GDP (μ: 10 μM; κ and δ: 20 μM) and 0.1 nM ^35S-GTP[γS] in assay buffer for 2 h (μ) or 1.5 h (κ and δ) at 30° C. Nonspecific binding was determined with 10 μM unlabeled GTP[γS].” for “assays.”

[13] = target: T2, KOR (Homo sapiens, UniProt P41145); experiment: Competitive radioligand binding, [3H]norBNI or [3H]DPN, CHO cells (Example 7); settings: Table 13; [3H]norBNI as radioligand; read-out: Ki κ
T2 construct: expressed in transfected cells; host or cells: CHO (Chinese hamster ovary) cell line, membrane preparation
Procedure: as §1, with “protein (30 μg)” for “preparation”, “corresponding radioligand” for “radioligands”, “Ki” for “K1”, “assays” for “assays, including ^35S-GTP[γS]-binding assay”, “assays. Membrane proteins (10 μg) were incubated with varying concentrations of drugs, GDP (μ: 10 μM; κ and δ: 20 μM) and 0.1 nM ^35S-GTP[γS] in assay buffer for 2 h (μ) or 1.5 h (κ and δ) at 30° C. Nonspecific binding was determined with 10 μM unlabeled GTP[γS].” for “assays.”

[14] = target: T2, KOR; experiment: KOR 35S-GTP[γS] binding assay (Example 7); format: biochemical; settings: for KOR 35S-GTP[γS] Binding % Emax of U50,488H: U50,488H normalized to 100%; for EC50: three experiments
Procedure: as §1, with “protein (30 μg)” for “preparation”, “corresponding radioligand” for “radioligands”, “Ki” for “K1”, “assays” for “assays, including ^35S-GTP[γS]-binding assay”, “assays. Membrane proteins (10 μg) were incubated with varying concentrations of drugs, GDP (μ: 10 μM; κ and δ: 20 μM) and 0.1 nM ^35S-GTP[γS] in assay buffer for 2 h (μ) or 1.5 h (κ and δ) at 30° C. Nonspecific binding was determined with 10 μM unlabeled GTP[γS].” for “assays.”

[15] = target: T1, MOR; experiment: Competitive radioligand binding, [3H]DAMGO, mono-cloned receptor in CHO cells (Example 1); set-up: expressed in transfected cells; host or cells: CHO (Chinese hamster ovary) cell line, membrane preparation; settings: read-out: Ki ± SEM [3H]DAMGO (μ); n=3
[16] = target: T1, MOR; experiment: Competitive radioligand binding, [3H]naloxone, CHO cells (Example 2); set-up: expressed in transfected cells; host or cells: CHO (Chinese hamster ovary) cell line, membrane preparation; settings: n=3; read-out: Ki ± SEM MOR
[17] = target: T2, KOR; format: binding; settings: n=3; read-out: Ki ± SEM [3H]norBNI (κ)
[18] = target: T2, KOR; format: binding; settings: n=3; read-out: Ki ± SEM KOR
[19] = target: DOR (UniProt P41143); format: binding; set-up: rows headed: Ki ± SEM [3H]NTI (δ); other: n=3; Ki ± SEM DOR; settings: n=3; read-out: Ki ± SEM [3H]NTI (δ)
[20] = target: DOR (UniProt P41143); format: binding; set-up: rows headed: Ki ± SEM [3H]NTI (δ); other: n=3; Ki ± SEM DOR; settings: n=3; read-out: Ki ± SEM DOR
[21] = target: T1, MOR; experiment: [35S]GTPγS functional assay (Example 1); format: biochemical; set-up: expressed in transfected cells; host or cells: CHO (Chinese hamster ovary) cell line, membrane preparation; settings: Emax of compound vs Emax of DAMGO (normalized to 100%)
[22] = in vivo; cited from earlier work
[23] = system: morphine antinociceptive effect in mice; settings: antagonizing morphine 10 mg/kg; s.c.; cited from earlier work
[24] = system: mice; experiment: Tail flick test, acute antinociception (Example 7); settings: 10 mg/kg
[25] = system: morphine naive mice; experiment: Acute charcoal gavage and intestinal motility assay in morphine naive mice; settings: morphine 10 mg/kg

## 17-Cyclopropylmethyl-3,14β-dihydroxy-4,5α-epoxy-6β-[(4′-pyridyl)acetamido]morphinan [Compound 6]
[1]
  apparent permeability (words, reported previously): significantly low
[2]
  diarrhea: incidence of diarrhea associated with high doses of NAP
[3]; n=3
  EC50: 1.15 ± 0.384 nM
  Emax (% Stim): 83.3 ± 3.1 % Stim
[3]; normalized to full agonist DAMGO (3 μM)
  Percent Max of DAMGO: 22.72 ± 0.84%
[4]
  withdrawal symptoms: marginal withdrawing symptoms
[5]
  Ki: 0.37 ± 0.07 nM
[6]
  MOR 35S-GTP[γS] Binding % Emax of DAMGO (see reference 65): 22.72 ± 0.84%
[6]; read-out: MOR 35S-GTP[γS] Binding EC50 (see reference 65)
  EC50: 1.14 ± 0.38 nM
[7]
  AD50 value for blockade of morphine antinociception: 4.5198 (2.4570 to 8.269.12) mg/kg (95% C.L.)

## 17-Cyclopropylmethyl-3,14β-dihydroxy-4,5α-epoxy-6β-{2′-[(pyridine-4″-yl)carboxamido]acetamido}morphinan [Compound 12]
[8]
  Ki: 526 ± 78.3 nM
[9]
  apparent permeability / bidirectional transport: no significant difference in its bidirectional transport capacity
[10]
  EC50: 2.84 ± 0.53 nM
  MOR 35S-GTP[γS] Binding % Emax of DAMGO: 22.62 ± 0.66%
[11]
  Selectivity δ/μ: 719
  Selectivity κ/μ: 278
  Ki: 0.73 ± 0.59 nM
[12]
  DOR 35S-GTP[γS] Binding % Emax of SNC80: 84.3 ± 23.2%
  EC50: 19 ± 2.9 nM
[13]
  Ki: 203 ± 67 nM
[14]
  KOR 35S-GTP[γS] Binding % Emax of U50,488H: 23.5 ± 1.6%
  EC50: 25 ± 22.4 nM

## COC(=O)/C=C/C(=O)N[C@@H]1CC[C@@]2(O)[C@H]3Cc4ccc(O)c5c4[C@@]2(CCN3CC2CC2)[C@H]1O5 [β-FNA, β-funaltrexamine]
[15]
  Ki: 0.41 ± 0.04 nM
[16]
  Ki: 0.41 ± 0.04 nM
[17]
  Ki: 0.94 ± 0.05 nM
[18]
  Ki: 0.94 ± 0.05 nM
[19]
  Ki: 27.8 ± 4.6 nM
[20]
  Ki: 27.8 ± 4.6 nM
[21]
  Percent Max of DAMGO: 0.00%

## 17-Cyclopropylmethyl-3,14β-dihydroxy-4,5α-epoxy-6β-{[4′-(3′-methylpyridyl)]carboxamido}morphinan [Compound 8]
[8]
  Ki: 273.6 ± 1.8 nM
[9]
  apparent permeability / bidirectional transport: low permeability
[10]
  EC50: 1.52 ± 0.26 nM
  MOR 35S-GTP[γS] Binding % Emax of DAMGO: 30.63 ± 0.55%
[11]
  Selectivity δ/μ: 470
  Selectivity κ/μ: 166
  Ki: 0.58 ± 0.25 nM
[12]
  DOR 35S-GTP[γS] Binding % Emax of SNC80: 90.2 ± 21.0%
  EC50: 38.6 ± 10 nM
[13]
  Ki: 96.7 ± 12.2 nM
[14]
  KOR 35S-GTP[γS] Binding % Emax of U50,488H: 31.4 ± 3.9%
  EC50: 26.4 ± 8.4 nM

## C=CCN1CC[C@]23c4c5ccc(O)c4O[C@H]2C(=O)CC[C@@]3(O)[C@H]1C5 [Naloxone, reference compound]
[22]
  systemic bioavailability: ~2%
[7]
  AD50 value for blockade of morphine antinociception: 0.05 (0.03 to 0.09) mg/kg (95% C.L.)
[23]
  AD50 values (data taken from Li, et al.): 0.05 (0.03-0.09) mg/kg (95% CL)

## CN1CC[C@]23c4c5ccc(O)c4O[C@H]2[C@@H](O)C=C[C@H]3[C@H]1C5.O=S(=O)(O)O [morphine, Morphine sulfate]
[24]
  percentage maximum possible effect (% MPE): 100%
[25]
  intestinal motility (% of intestine length travelled by charcoal): 12.4±2.0%
